{"source": "ChEMBL document CHEMBL5375953", "about": "“Discovery of Biaryl Amide Derivatives as Potent, Selective, and Orally Bioavailable RORγt Agonists for Cancer Immunotherapy” (J Med Chem, 2023)", "key": {"[1]": {"experiment": "Metabolic Stability in mouse liver microsome assessed as microsomal intrinsic clearance at […] measured upto 60 mins by HPLC-MS/MS analysis", "type": "ADME", "details": "liver microsomes, read-out: CLH"}, "[2]": {"experiment": "Metabolic Stability in rat liver microsome assessed as half life at […] measured upto 60 mins by HPLC-MS/MS analysis", "type": "ADME", "details": "liver microsomes"}, "[3]": {"experiment": "Metabolic Stability in dog liver microsome assessed as half life at […] measured upto 60 mins by HPLC-MS/MS analysis", "type": "ADME, Canis lupus familiaris", "details": "liver microsomes"}, "[4]": {"experiment": "Metabolic Stability in rat liver microsome assessed as microsomal intrinsic clearance at […] measured upto 60 mins by HPLC-MS/MS analysis", "type": "ADME", "details": "liver microsomes, read-out: CLH"}, "[5]": {"experiment": "Metabolic Stability in dog liver microsome assessed as microsomal intrinsic clearance at […] measured upto 60 mins by HPLC-MS/MS analysis", "type": "ADME, Canis lupus familiaris", "details": "liver microsomes, read-out: CLH"}, "[6]": {"experiment": "Metabolic Stability in cynomolgus monkey liver microsome assessed as microsomal intrinsic clearance at […] measured upto 60 mins by HPLC-MS/MS analysis", "type": "ADME, Macaca fascicularis", "details": "liver microsomes, read-out: CLH"}, "[7]": {"experiment": "Metabolic Stability in mouse liver microsome assessed as intrinsic clearance at […] measured upto 60 mins by HPLC-MS/MS analysis", "type": "ADME", "details": "microsomes, 1 h"}, "[8]": {"experiment": "Metabolic Stability in human liver microsome assessed as intrinsic clearance at […] measured upto 60 mins by HPLC-MS/MS analysis", "type": "ADME", "details": "microsomes, 1 h"}, "[9]": {"target": "T1, Nuclear receptor ROR-alpha (Homo sapiens, UniProt P35398)", "T1 sequence (P35398 whole entry)": "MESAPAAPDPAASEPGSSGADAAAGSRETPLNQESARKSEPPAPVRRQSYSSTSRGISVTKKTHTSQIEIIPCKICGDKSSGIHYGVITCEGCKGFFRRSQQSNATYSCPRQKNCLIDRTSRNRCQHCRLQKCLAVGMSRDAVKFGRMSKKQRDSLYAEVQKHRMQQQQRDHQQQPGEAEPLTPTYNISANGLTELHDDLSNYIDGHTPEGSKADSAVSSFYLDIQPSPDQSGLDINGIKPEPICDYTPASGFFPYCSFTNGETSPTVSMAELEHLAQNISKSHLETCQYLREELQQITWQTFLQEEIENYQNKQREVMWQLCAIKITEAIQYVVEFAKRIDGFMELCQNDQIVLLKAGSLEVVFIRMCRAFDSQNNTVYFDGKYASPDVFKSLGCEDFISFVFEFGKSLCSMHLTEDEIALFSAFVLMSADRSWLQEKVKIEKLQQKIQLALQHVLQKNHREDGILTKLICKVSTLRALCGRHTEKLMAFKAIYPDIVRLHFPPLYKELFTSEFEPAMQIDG", "experiment": "Agonist activity at human Gal4-fused RORalpha expressed in HEK293T cells assessed as luciferase activity incubated for 16 to 20 hrs by Luciferase reporter gene assay", "type": "cell-based"}, "[10]": {"target": "T2, Nuclear receptor ROR-beta (Homo sapiens, UniProt Q92753)", "T2 sequence (Q92753 whole entry)": "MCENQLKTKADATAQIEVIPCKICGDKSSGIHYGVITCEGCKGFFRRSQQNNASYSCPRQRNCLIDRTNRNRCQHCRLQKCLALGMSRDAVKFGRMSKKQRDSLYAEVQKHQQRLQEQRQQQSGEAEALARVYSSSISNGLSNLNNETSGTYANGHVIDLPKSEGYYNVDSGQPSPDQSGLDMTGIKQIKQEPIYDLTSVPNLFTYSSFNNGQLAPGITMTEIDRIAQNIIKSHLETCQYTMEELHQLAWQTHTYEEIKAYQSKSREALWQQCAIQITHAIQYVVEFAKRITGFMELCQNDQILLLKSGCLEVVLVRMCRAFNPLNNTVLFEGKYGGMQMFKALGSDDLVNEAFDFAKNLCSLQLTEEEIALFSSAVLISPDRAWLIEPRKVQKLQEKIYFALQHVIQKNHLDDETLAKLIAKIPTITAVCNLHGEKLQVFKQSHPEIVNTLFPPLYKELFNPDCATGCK", "experiment": "Agonist activity at human Gal4-fused RORbeta expressed in HEK293T cells assessed as luciferase activity incubated for 16 to 20 hrs by Luciferase reporter gene assay", "type": "cell-based"}, "[11]": {"experiment": "Half life in CD-1 mouse at 1 mg/kg,iv administration measured after 24 hrs by LC-MS/MS analysis", "type": "ADME, organism-based", "details": "in vivo"}, "[12]": {"experiment": "Cmax in CD-1 mouse at 5 mg/kg,po administration measured after 24 hrs by LC-MS/MS analysis", "type": "ADME, organism-based", "parameters": "dose 5 mg/kg, time 24 hrs, route po", "details": "in vivo"}, "[13]": {"experiment": "Half life in CD-1 mouse at 5 mg/kg,po administration measured after 24 hrs by LC-MS/MS analysis", "type": "ADME, organism-based", "details": "in vivo"}, "[14]": {"experiment": "Oral bioavailability in CD-1 mouse at 5 mg/kg administration measured after 24 hrs by LC-MS/MS analysis", "type": "ADME, organism-based", "details": "in vivo"}, "[15]": {"experiment": "AUC(infinity) in rat at 1 mg/kg,iv administration measured after 24 hrs by LC-MS/MS analysis", "type": "ADME, organism-based", "parameters": "dose 1 mg/kg, time 24 hrs, route iv", "details": "in vivo"}, "[16]": {"experiment": "Cmax in rat at 5 mg/kg,po administration measured after 24 hrs by LC-MS/MS analysis", "type": "ADME, organism-based", "parameters": "time 24 hrs, dose 5 mg/kg, route po", "details": "in vivo"}, "[17]": {"experiment": "Half life in rat at 5 mg/kg,po administration measured after 24 hrs by LC-MS/MS analysis", "type": "ADME, organism-based", "details": "in vivo"}, "[18]": {"experiment": "Cmax in dog at 2 mg/kg,po administration measured after 24 hrs by LC-MS/MS analysis", "type": "ADME, organism-based, Canis lupus familiaris", "parameters": "dose 2 mg/kg, time 24 hrs, route po", "details": "in vivo"}, "[19]": {"target": "Voltage-gated inwardly rectifying potassium channel KCNH2 (Homo sapiens, UniProt Q12809)", "sequence (Q12809 whole entry)": "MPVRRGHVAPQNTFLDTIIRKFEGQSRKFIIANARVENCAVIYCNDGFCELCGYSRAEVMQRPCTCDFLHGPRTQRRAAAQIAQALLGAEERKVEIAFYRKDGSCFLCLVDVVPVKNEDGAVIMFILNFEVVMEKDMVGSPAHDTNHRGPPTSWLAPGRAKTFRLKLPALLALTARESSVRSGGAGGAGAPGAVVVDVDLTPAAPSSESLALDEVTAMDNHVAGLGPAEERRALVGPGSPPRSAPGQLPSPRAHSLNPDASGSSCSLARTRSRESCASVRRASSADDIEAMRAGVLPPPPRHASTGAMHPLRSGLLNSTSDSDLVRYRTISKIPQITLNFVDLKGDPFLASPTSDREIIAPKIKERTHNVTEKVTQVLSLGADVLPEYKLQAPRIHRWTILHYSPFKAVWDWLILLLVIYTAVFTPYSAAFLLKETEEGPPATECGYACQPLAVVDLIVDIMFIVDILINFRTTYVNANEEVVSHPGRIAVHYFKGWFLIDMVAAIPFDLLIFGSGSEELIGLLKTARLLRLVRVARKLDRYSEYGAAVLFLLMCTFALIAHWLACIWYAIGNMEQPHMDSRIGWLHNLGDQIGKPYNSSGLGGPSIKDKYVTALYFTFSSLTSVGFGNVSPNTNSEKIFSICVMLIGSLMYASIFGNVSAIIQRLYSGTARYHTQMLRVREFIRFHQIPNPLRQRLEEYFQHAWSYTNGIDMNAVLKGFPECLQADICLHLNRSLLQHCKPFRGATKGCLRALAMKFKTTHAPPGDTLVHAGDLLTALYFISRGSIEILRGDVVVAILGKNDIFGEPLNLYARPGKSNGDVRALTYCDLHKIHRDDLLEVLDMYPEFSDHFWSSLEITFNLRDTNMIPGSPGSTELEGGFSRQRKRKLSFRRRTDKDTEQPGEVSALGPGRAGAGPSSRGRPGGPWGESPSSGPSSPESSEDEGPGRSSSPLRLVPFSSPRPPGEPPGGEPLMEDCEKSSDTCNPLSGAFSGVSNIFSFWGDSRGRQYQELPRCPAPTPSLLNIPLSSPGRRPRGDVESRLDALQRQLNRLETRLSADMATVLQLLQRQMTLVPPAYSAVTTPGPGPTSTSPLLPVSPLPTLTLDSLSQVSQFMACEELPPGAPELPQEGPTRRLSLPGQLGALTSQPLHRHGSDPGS", "experiment": "Inhibition of hERG potassium channel by patch clamp assay", "type": "toxicity"}, "[20]": {"experiment": "Genotoxicity in Salmonella typhimurium TA98 by mini-Ames mutagenicity test", "type": "toxicity", "details": "salmonella enterica subsp. enterica serovar typhimurium"}, "[21]": {"experiment": "Genotoxicity in Salmonella typhimurium TA100 by mini-Ames mutagenicity test", "type": "toxicity", "details": "salmonella enterica subsp. enterica serovar typhimurium"}, "B16-F10": {"tested_on": "B16-F10", "experiment": "Antitumor activity against mouse B16-F10 cells xenografted in C57BL/6 mouse assessed as tumor growth inhibition at 25 mg/kg,ip administrated on day 7 for 8 days relative to control", "type": "functional", "details": "B16-F10, 192 h, time 8 day, read-out: TGI"}, "[22]": {"experiment": "Toxicity against C57BL/6 mouse xenografted with mouse B16-F10 cells assessed as body weight loss at 25 to 100 mg/kg,ip administrated on day 7 for 8 days", "type": "organism-based", "details": "in vivo, 192 h, dose 25-100 mg/kg, time 8 day"}, "[23]": {"experiment": "Antitumor activity against mouse Lung adenocarcinoma cell line xenografted in C57BL/6 mouse assessed as tumor growth inhibition at 25 mg/kg,ip administrated on day 7 for 12 days relative to control", "type": "functional", "details": "288 h, time 12 day, read-out: TGI"}, "[24]": {"experiment": "Antitumor activity against mouse Lung adenocarcinoma cell line xenografted in C57BL/6 mouse assessed as tumor growth inhibition at 50 mg/kg,ip administrated on day 7 for 12 days relative to control", "type": "functional", "details": "288 h, time 12 day, read-out: TGI"}, "[25]": {"experiment": "Antitumor activity against mouse Lung adenocarcinoma cell line xenografted in C57BL/6 mouse assessed as tumor growth inhibition at 100 mg/kg,po administrated on day 7 for 12 days relative to control", "type": "functional", "details": "288 h, time 12 day, read-out: TGI"}, "[26]": {"experiment": "Toxicity against C57BL/6 mouse xenografted with mouse Lung adenocarcinoma cell line assessed as change in body weight at 50 mg/kg,ip administrated on day 7 for 12 days", "type": "organism-based", "details": "in vivo, 288 h, time 12 day"}, "[27]": {"experiment": "Toxicity against C57BL/6 mouse xenografted with mouse Lung adenocarcinoma cell line assessed as change in body weight at 100 mg/kg,po administrated on day 7 for 12 days", "type": "organism-based", "details": "in vivo, 288 h, time 12 day"}}, "data": [{"molecule": "CCS(=O)(=O)c1ccc(CC(=O)Nc2cc(Cl)c(-c3ccc(OC(C)C)c(C#N)c3)c(Cl)c2)cc1", "values": [{"measurement": "microsomal CLint", "setting": "[1]", "result": "< 9.6", "unit": "µL/min/mg"}, {"measurement": "half-life", "setting": "[2]", "result": "> 2.42", "unit": "h"}, {"measurement": "half-life", "setting": "[3]", "result": "> 2.42", "unit": "h"}, {"measurement": "microsomal CLint", "setting": "[4]", "result": "< 9.6", "unit": "µL/min/mg"}, {"measurement": "microsomal CLint", "setting": "[5]", "result": "< 9.6", "unit": "µL/min/mg"}, {"measurement": "microsomal CLint", "setting": "[6]", "result": 44.6, "unit": "µL/min/mg"}, {"measurement": "CLH", "setting": "[7]", "result": "< 38", "unit": "µL/min/mg"}, {"measurement": "CLH", "setting": "[8]", "result": "< 8.6", "unit": "µL/min/mg"}, {"measurement": "EC50", "setting": "[9]", "result": "> 10", "unit": "µM"}, {"measurement": "EC50", "setting": "[10]", "result": "> 10", "unit": "µM"}, {"measurement": "t1/2", "setting": "[11]", "result": 6.3, "unit": "h"}, {"measurement": "Cmax", "setting": "[12]", "result": 1.81, "unit": "µg/mL"}, {"measurement": "half-life", "setting": "[13]", "result": 6, "unit": "h"}, {"measurement": "bioavailability", "setting": "[14]", "result": 90.3, "unit": "%"}, {"measurement": "AUC(0-inf)", "setting": "[15]", "result": 5.41, "unit": "µg·h/mL"}, {"measurement": "Cmax", "setting": "[16]", "result": 0.503, "unit": "µg/mL"}, {"measurement": "half-life", "setting": "[17]", "result": 11.4, "unit": "h"}, {"measurement": "Cmax", "setting": "[18]", "result": 0.518, "unit": "µg/mL"}, {"measurement": "IC50", "setting": "[19]", "result": "> 10", "unit": "µM"}, {"measurement": "Activity", "setting": "[20]", "result": "Non-Toxic"}, {"measurement": "Activity", "setting": "[21]", "result": "Non-Toxic"}, {"measurement": "inhibition in vivo at 25 mg/kg", "setting": "B16-F10", "result": 51.6, "unit": "%"}, {"measurement": "Activity", "setting": "[22]", "result": "Non-Toxic"}, {"measurement": "inhibition in vivo at 25 mg/kg", "setting": "[23]", "result": 46.2, "unit": "%"}, {"measurement": "inhibition in vivo at 50 mg/kg", "setting": "[24]", "result": 75.6, "unit": "%"}, {"measurement": "inhibition in vivo at 100 mg/kg", "setting": "[25]", "result": 49.8, "unit": "%"}, {"measurement": "Activity", "setting": "[26]", "result": "Non-Toxic"}, {"measurement": "Activity", "setting": "[27]", "result": "Non-Toxic"}]}]}
